Values joined by “and” are separate entries in the source; they are usually repeats but may differ in a detail not shown here. Identical values can stand only once.

For the assay, the target named is T1, Neuropeptide Y receptor type 2 (Rattus norvegicus, UniProt Q9ERC0).
T1 sequence (Q9ERC0 whole entry): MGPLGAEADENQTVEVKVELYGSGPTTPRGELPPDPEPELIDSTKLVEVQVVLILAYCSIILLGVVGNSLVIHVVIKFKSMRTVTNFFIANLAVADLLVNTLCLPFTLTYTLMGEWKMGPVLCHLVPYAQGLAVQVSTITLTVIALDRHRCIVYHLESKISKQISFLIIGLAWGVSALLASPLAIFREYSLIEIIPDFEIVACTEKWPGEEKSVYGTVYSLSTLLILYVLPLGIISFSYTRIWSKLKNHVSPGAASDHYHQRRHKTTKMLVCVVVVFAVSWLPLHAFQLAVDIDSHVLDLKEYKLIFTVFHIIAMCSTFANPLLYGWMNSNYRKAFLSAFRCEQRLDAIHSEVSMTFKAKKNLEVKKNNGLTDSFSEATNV
Consider `O=c1oc2ccccc2c(O)c1C1CC(c2ccc(-c3ccccc3)cc2)Cc2ccccc21` (stereo not drawn) [NSC_41735], for which the Ki (commonly the dissociation constant of the complex between target and ligand, obtained from inhibition or displacement) was 1000 nM.
In the case of `NC(N)=NCCCC(NC(=O)CC1(CC(=O)N2CCN(C3c4ccccc4NC(=O)c4ccccc43)CC2)CCCC1)C(=O)NCCn1c(=O)n(-c2ccccc2)n(-c2ccccc2)c1=O` (stereo not drawn) [NSC_5311024] it was 6.5 nM.
As to `CC(=O)N[C@@H](C)C(=O)N[C@@H](CO)C(=O)N[C@@H](CC(C)C)C(=O)N[C@@H](CCCNC(=N)N)C(=O)N[C@@H](Cc1cnc[nH]1)C(=O)N[C@@H](Cc1ccc(O)cc1)C(=O)N[C@@H](CC(C)C)C(=O)N[C@@H](CC(N)=O)C(=O)N[C@@H](CC(C)C)C(=O)N[C@H](C(=O)N[C@H](C(=O)N[C@@H](CCCNC(=N)N)C(=O)N[C@@H](CCC(N)=O)C(=O)N[C@@H](CCCNC(=N)N)C(=O)N[C@@H](Cc1ccc(O)cc1)C(N)=O)[C@@H](C)O)C(C)C` [PYY, N-alpha-Ac, 22-36], the inhibition constant (Ki) is 1.66 nM and 0.54 nM.

(Values after BindingDB's records for doi:10.1124/mol.60.1.124 (U410, 2001).)
